How the values were obtained:
Assay type in all cases: in vivo
Settings in all cases: 14 DAA
Setaria viridis (SETVI) = assay: Test 1B glasshouse assay, post-emergence herbicidal activity against grassy weeds
Experimental: (§1) Biological Example 1B tests the herbicidal activity of“technical” compounds (i.e. compounds not previously formulated before the test), as the herbicides under test.
(§2) An “instant formulation”, known as the “IF50”, containing 50 g/liter (i.e. 5% w/v) of the “technical” (i.e. unformulated) active ingredient (i.e. the herbicide under test), is prepared by dissolving the active ingredient in a mixture of organic solvents and emulsifier, details of which are provided in the Table below.
(§3) This IF50 is mixed with a small, variable amount of acetone to aid dissolution, before addition of a 0.5% v/v aqueous solution of the adjuvant Adigor™ (an adjuvant containing rapeseed oil methyl ester, ethoxylated alcohols, and a mixture of heavy aromatic hydrocarbons, e.g. available from Syngenta), as the aqueous diluent, to form an aqueous spray solution which contains a predetermined concentration of the active ingredient (which varies depending on the application rate of the active ingredient to the plants) and 0.5% v/v of the adjuvant Adigor™. This aqueous spray solution is suitable for spraying onto plants.
(§4) Seeds of a variety of test species are sown in standard soil in pots. After cultivation for 14 days under controlled conditions in a glasshouse (at 22/16° C., day/night; 16 hours light; 65% humidity), the plants are sprayed post-emergence with the above-mentioned aqueous spray solution containing inter alia the “technical” active ingredient (i.e. the herbicide under test) and the adjuvant Adigor™.
(§5) The test plants are then grown on under controlled conditions in the glasshouse (at 22/16° C., day/night; 16 hours light; 65% humidity) and are watered twice daily. 14 days after application of the test herbicide, the test is evaluated visually for percentage phytotoxicity to the plant (where 100%=total damage to plant; 0%=no damage to plant).
(§6) More specifically, post-emergence herbicidal activity (phytotoxicity) data, on certain tested grassy monocotyledonous weeds (and/or plants of the type Gramineae) and cereal crops in the glasshouse, are measured 14 days after application of the herbicide (14 DAA), typically for inter alia one or more of the following application rates: • (a) a post-emergence application rate of 60 g/ha of the test herbicide with or without 50 g/ha of cloquintocet-mexyl safener, and • (b) a post-emergence application rate of 90 g/ha of the test herbicide with 50 g/ha of cloquintocet-mexyl safener, and • (c) a post-emergence application rate of 120 g/ha of the test herbicide with 50 g/ha of cloquintocet-mexyl safener.
(§7) The cloquintocet-mexyl, when used, is present in the formulation containing the herbicide under test dissolved in acetone plus IF50.
(§8) The range of herbicide application rates tested sometimes includes application rates other than those shown above, and the rates can vary depending on the herbicide under test.
(§9) Herbicidal activity (phytotoxicity) is evaluated visually, and an assessed percentage phytotoxicity score is given for each herbicidal application on each plant species (with 100%=total damage to plant; 0%=no damage to plant; the assessment is recorded in increments of 1%). Two replicates are made for each experiment, and the mean herbicidal activity (phytotoxicity) data is reported.
(§10) For compounds A34, A98, A99, A87, A100, A101, A89, A120, A120A, A120B, A23, A127, A128, A89, A112 and A113 the tested weeds were as follows: Avena fatua (AVEFA), Lolium multiflorum (LOLMU), Setaria viridis (SETVI), Poa annua (POAAN), Alopecurus myosuroides (ALOMY). All five of these are grassy monocotyledonous weeds. Except for SETVI, these are all “cool-season” grassy monocotyledonous weeds.

Avena fatua (AVEFA) = assay: as above
Experimental: as §1, §2, §3, §4, §5, §6, §7, §8, §9, §10

[1] = tested on: Lolium multiflorum (LOLMU); assay: as above
Experimental: as §1, §2, §3, §4, §5, §6, §7, §8, §9, §10

Poa annua (POAAN) = assay: as above
Experimental: as §1, §2, §3, §4, §5, §6, §7, §8, §9, §10

[2] = tested on: Alopecurus myosuroides (ALOMY); assay: as above
Experimental: as §1, §2, §3, §4, §5, §6, §7, §8, §9, §10

Spring Wheat “Teal” = assay: Test 1B glasshouse assay, post-emergence herbicidal activity against cereal crops
Experimental: as §1, §2, §3, §4, §5, §6, §7, §8, §9

Winter Barley “Suzuka” = assay: as above
Experimental: as §1, §2, §3, §4, §5, §6, §7, §8, §9

Winter Wheat “Hereward” = assay: as above
Experimental: as §1, §2, §3, §4, §5, §6, §7, §8, §9

[3] = tested on: Spring Barley “Harrington”; assay: as above
Experimental: as §1, §2, §3, §4, §5, §6, §7, §8, §9

[4] = 60 g/ha herbicide, 0 g/ha cloquintocet-mexyl, test result no. 1 (T1)
[5] = 60 g/ha herbicide, 50 g/ha cloquintocet-mexyl, test result no. 1 (T1)
[6] = 60 g/ha herbicide, 50 g/ha cloquintocet-mexyl, test result no. 2 (T2)
[7] = 90 g/ha herbicide, 50 g/ha cloquintocet-mexyl, test result no. 2 (T2)
[8] = 120 g/ha herbicide, 50 g/ha cloquintocet-mexyl, test result no. 2 (T2)
[9] = 30 g/ha herbicide, 50 g/ha cloquintocet-mexyl
[10] = 45 g/ha herbicide, 50 g/ha cloquintocet-mexyl
[11] = 60 g/ha herbicide, 0 g/ha cloquintocet-mexyl
[12] = 60 g/ha herbicide, 50 g/ha cloquintocet-mexyl

Cc1cc(-n2cc(Cl)cn2)cc(C)c1C1C(=O)C[C@H](CCNC(=O)c2ccccn2)C1=O (stereo partly drawn) [Compound A99]
Post-emergence herbicidal activity, percentage phytotoxicity, SETVI (Setaria viridis (SETVI); [4]): 10 (T1) %
Post-emergence herbicidal activity, percentage phytotoxicity, SETVI (Setaria viridis (SETVI); [5]): 8 (T1); %
Post-emergence herbicidal activity, percentage phytotoxicity, SETVI (Setaria viridis (SETVI); [6]): 33 (T2) %
Post-emergence herbicidal activity, percentage phytotoxicity, SETVI (Setaria viridis (SETVI); [7]): 68 (T2) %
Post-emergence herbicidal activity, percentage phytotoxicity, SETVI (Setaria viridis (SETVI); [8]): 75 (T2) %
Post-emergence herbicidal activity, percentage phytotoxicity, AVEFA (Avena fatua (AVEFA); [4]): 50 (T1) %
Post-emergence herbicidal activity, percentage phytotoxicity, AVEFA (Avena fatua (AVEFA); [5]): 40 (T1); %
Post-emergence herbicidal activity, percentage phytotoxicity, AVEFA (Avena fatua (AVEFA); [6]): 48 (T2) %
Post-emergence herbicidal activity, percentage phytotoxicity, AVEFA (Avena fatua (AVEFA); [7]): 60 (T2) %
Post-emergence herbicidal activity, percentage phytotoxicity, AVEFA (Avena fatua (AVEFA); [8]): 78 (T2) %
Post-emergence herbicidal activity, percentage phytotoxicity, LOLMU [1, 4]: 35 (T1) %
Post-emergence herbicidal activity, percentage phytotoxicity, LOLMU [1, 5]: 35 (T1); %
Post-emergence herbicidal activity, percentage phytotoxicity, LOLMU [1, 6]: 55 (T2) %
Post-emergence herbicidal activity, percentage phytotoxicity, LOLMU [1, 7]: 65 (T2) %
Post-emergence herbicidal activity, percentage phytotoxicity, LOLMU [1, 8]: 78 (T2) %
Post-emergence herbicidal activity, percentage phytotoxicity, POAAN (Poa annua (POAAN); [4]): 70 (T1) %
Post-emergence herbicidal activity, percentage phytotoxicity, POAAN (Poa annua (POAAN); [5]): 73 (T1); %
Post-emergence herbicidal activity, percentage phytotoxicity, POAAN (Poa annua (POAAN); [6]): 70 (T2) %
Post-emergence herbicidal activity, percentage phytotoxicity, POAAN (Poa annua (POAAN); [7]): 73 (T2) %
Post-emergence herbicidal activity, percentage phytotoxicity, POAAN (Poa annua (POAAN); [8]): 75 (T2) %
Post-emergence herbicidal activity, percentage phytotoxicity, ALOMY [2, 4]: 50 (T1) %
Post-emergence herbicidal activity, percentage phytotoxicity, ALOMY [2, 5]: 35 (T1); %
Post-emergence herbicidal activity, percentage phytotoxicity, ALOMY [2, 6]: 38 (T2) %
Post-emergence herbicidal activity, percentage phytotoxicity, ALOMY [2, 7]: 58 (T2) %
Post-emergence herbicidal activity, percentage phytotoxicity, ALOMY [2, 8]: 73 (T2) %
Post-emergence herbicidal activity against cereal crops, percentage phytotoxicity, Spring Wheat “Teal” (Spring Wheat “Teal”; [4]): 2 (T1) %
Post-emergence herbicidal activity against cereal crops, percentage phytotoxicity, Spring Wheat “Teal” (Spring Wheat “Teal”; [5]): 1 (T1); %
Post-emergence herbicidal activity against cereal crops, percentage phytotoxicity, Spring Wheat “Teal” (Spring Wheat “Teal”; [6]): 5 (T2) %
Post-emergence herbicidal activity against cereal crops, percentage phytotoxicity, Spring Wheat “Teal” (Spring Wheat “Teal”; [7]): 5 (T2) %
Post-emergence herbicidal activity against cereal crops, percentage phytotoxicity, Spring Wheat “Teal” (Spring Wheat “Teal”; [8]): 8 (T2) %
Post-emergence herbicidal activity against cereal crops, percentage phytotoxicity, Winter Barley “Suzuka” (Winter Barley “Suzuka”; [4]): 60 (T1) %
Post-emergence herbicidal activity against cereal crops, percentage phytotoxicity, Winter Barley “Suzuka” (Winter Barley “Suzuka”; [5]): 15 (T1); %
Post-emergence herbicidal activity against cereal crops, percentage phytotoxicity, Winter Barley “Suzuka” (Winter Barley “Suzuka”; [6]): 14 (T2) %
Post-emergence herbicidal activity against cereal crops, percentage phytotoxicity, Winter Barley “Suzuka” (Winter Barley “Suzuka”; [7]): 35 (T2) %
Post-emergence herbicidal activity against cereal crops, percentage phytotoxicity, Winter Barley “Suzuka” (Winter Barley “Suzuka”; [8]): 38 (T2) %
Post-emergence herbicidal activity against cereal crops, percentage phytotoxicity, Winter Wheat “Hereward” (Winter Wheat “Hereward”; [4]): 0 (T1) %
Post-emergence herbicidal activity against cereal crops, percentage phytotoxicity, Winter Wheat “Hereward” (Winter Wheat “Hereward”; [5]): 1 (T1); %
Post-emergence herbicidal activity against cereal crops, percentage phytotoxicity, Winter Wheat “Hereward” (Winter Wheat “Hereward”; [6]): 0 (T2) %
Post-emergence herbicidal activity against cereal crops, percentage phytotoxicity, Winter Wheat “Hereward” (Winter Wheat “Hereward”; [7]): 0 (T2) %
Post-emergence herbicidal activity against cereal crops, percentage phytotoxicity, Winter Wheat “Hereward” (Winter Wheat “Hereward”; [8]): 8 (T2) %
Post-emergence herbicidal activity against cereal crops, percentage phytotoxicity, Spring Barley “Harrington” [3, 4]: 15 (T1) %
Post-emergence herbicidal activity against cereal crops, percentage phytotoxicity, Spring Barley “Harrington” [3, 5]: 3 (T1); %
Post-emergence herbicidal activity against cereal crops, percentage phytotoxicity, Spring Barley “Harrington” [3, 6]: 3 (T2) %
Post-emergence herbicidal activity against cereal crops, percentage phytotoxicity, Spring Barley “Harrington” [3, 7]: 5 (T2) %
Post-emergence herbicidal activity against cereal crops, percentage phytotoxicity, Spring Barley “Harrington” [3, 8]: 8 (T2) %

CCc1cc(-n2cc(Cl)cn2)cc(C)c1C1C(=O)C[C@H](CCNC(=O)c2ccccn2)C1=O (stereo partly drawn) [Compound A101]
Post-emergence herbicidal activity, percentage phytotoxicity, SETVI (Setaria viridis (SETVI); [9]): 15%
Post-emergence herbicidal activity, percentage phytotoxicity, SETVI (Setaria viridis (SETVI); [10]): 35%
Post-emergence herbicidal activity, percentage phytotoxicity, SETVI (Setaria viridis (SETVI); [11]): 53%
Post-emergence herbicidal activity, percentage phytotoxicity, SETVI (Setaria viridis (SETVI); [12]): 53%
Post-emergence herbicidal activity, percentage phytotoxicity, AVEFA (Avena fatua (AVEFA); [9]): 73%
Post-emergence herbicidal activity, percentage phytotoxicity, AVEFA (Avena fatua (AVEFA); [10]): 88%
Post-emergence herbicidal activity, percentage phytotoxicity, AVEFA (Avena fatua (AVEFA); [11]): 90%
Post-emergence herbicidal activity, percentage phytotoxicity, AVEFA (Avena fatua (AVEFA); [12]): 88%
Post-emergence herbicidal activity, percentage phytotoxicity, LOLMU [1, 9]: 68%
Post-emergence herbicidal activity, percentage phytotoxicity, LOLMU [1, 10]: 83%
Post-emergence herbicidal activity, percentage phytotoxicity, LOLMU [1, 11]: 88%
Post-emergence herbicidal activity, percentage phytotoxicity, LOLMU [1, 12]: 83%
Post-emergence herbicidal activity, percentage phytotoxicity, POAAN (Poa annua (POAAN); [9]): 5%
Post-emergence herbicidal activity, percentage phytotoxicity, POAAN (Poa annua (POAAN); [10]): 15%
Post-emergence herbicidal activity, percentage phytotoxicity, POAAN (Poa annua (POAAN); [11]): 48%
Post-emergence herbicidal activity, percentage phytotoxicity, POAAN (Poa annua (POAAN); [12]): 38%
Post-emergence herbicidal activity, percentage phytotoxicity, ALOMY [2, 9]: 25%
Post-emergence herbicidal activity, percentage phytotoxicity, ALOMY [2, 10]: 43%
Post-emergence herbicidal activity, percentage phytotoxicity, ALOMY [2, 11]: 55%
Post-emergence herbicidal activity, percentage phytotoxicity, ALOMY [2, 12]: 55%
Post-emergence herbicidal activity against cereal crops, percentage phytotoxicity, Spring Wheat “Teal” (Spring Wheat “Teal”; [9]): 10%
Post-emergence herbicidal activity against cereal crops, percentage phytotoxicity, Spring Wheat “Teal” (Spring Wheat “Teal”; [10]): 13%
Post-emergence herbicidal activity against cereal crops, percentage phytotoxicity, Spring Wheat “Teal” (Spring Wheat “Teal”; [11]): 48%
Post-emergence herbicidal activity against cereal crops, percentage phytotoxicity, Spring Wheat “Teal” (Spring Wheat “Teal”; [12]): 18%
Post-emergence herbicidal activity against cereal crops, percentage phytotoxicity, Winter Barley “Suzuka” (Winter Barley “Suzuka”; [9]): 23%
Post-emergence herbicidal activity against cereal crops, percentage phytotoxicity, Winter Barley “Suzuka” (Winter Barley “Suzuka”; [10]): 23%
Post-emergence herbicidal activity against cereal crops, percentage phytotoxicity, Winter Barley “Suzuka” (Winter Barley “Suzuka”; [11]): 75%
Post-emergence herbicidal activity against cereal crops, percentage phytotoxicity, Winter Barley “Suzuka” (Winter Barley “Suzuka”; [12]): 40%
Post-emergence herbicidal activity against cereal crops, percentage phytotoxicity, Winter Wheat “Hereward” (Winter Wheat “Hereward”; [9]): 18%
Post-emergence herbicidal activity against cereal crops, percentage phytotoxicity, Winter Wheat “Hereward” (Winter Wheat “Hereward”; [10]): 23%
Post-emergence herbicidal activity against cereal crops, percentage phytotoxicity, Winter Wheat “Hereward” (Winter Wheat “Hereward”; [11]): 43%
Post-emergence herbicidal activity against cereal crops, percentage phytotoxicity, Winter Wheat “Hereward” (Winter Wheat “Hereward”; [12]): 38%
Post-emergence herbicidal activity against cereal crops, percentage phytotoxicity, Spring Barley “Harrington” [3, 9]: 18%
Post-emergence herbicidal activity against cereal crops, percentage phytotoxicity, Spring Barley “Harrington” [3, 10]: 18%
Post-emergence herbicidal activity against cereal crops, percentage phytotoxicity, Spring Barley “Harrington” [3, 11]: 48%
Post-emergence herbicidal activity against cereal crops, percentage phytotoxicity, Spring Barley “Harrington” [3, 12]: 23%

Source: US9808003B2, “Herbicidally active 2-(substituted-phenyl)-cyclopentane-1,3-dione compounds and derivatives thereof” (Syngenta Limited, priority 2013, dated 2017)
